We go through two compounds from US5516647A, “Compounds useful as alkaline phosphatase inhibitors and therapeutic agents” (Abbott Laboratories, priority 1993, dated 1996).

One test has as its system AP. To be noted: cited from earlier work.
For a further test, the target named is T1, human placental AP (Homo sapiens, UniProt P05187).
T1 construct: purchased Sigma Chemical Co., St. Louis, Mo
Briefly: Inhibition of human placental AP isoenzyme (p-nitrophenylphosphate hydrolysis). It counts as biochemical. The protocol: (§1) Human intestinal AP was obtained from Aalto Scientific, Ltd. Vista, Calif. […] L-Phenylalanine was obtained from Aldrich Chemical Company, Milwaukee, Wis. Human bone AP was isolated from human osteosarcoma-derived cell line, Saos-2 (Catalog No. HTB 85, The American Type Culture Collection, 12301 Parklawn Drive, Rockville, Md.) by butanol extraction as described by J. R. Farley et al., (1989) Clin Chem. 35, 223-229.
(§2) AP activity was determined with VP Bichromatic Analyzer (Abbott Laboratories) by monitoring the appearance of the yellow product, p-nitrophenol, produced as a result of the enzyme catalyzed hydrolysis of the colorless substrate, p-nitrophenylphosphate. The stock preparations of E. coli and human AP were diluted to 0.3-1.0 U/ml with 0.1M Tris buffer, pH 8.0, containing 1 mM magnesium chloride, 0.1 mM zinc chloride and 5 mg/ml bovine serum albumin. […] The diluted enzyme solutions were prepared fresh just before the start of the experiments. The final assay conditions for the human and E. coli AP were as follows:
(§3) Human AP Isoenzymes: p-Nitrophenylphosphate (2.2 mmol/liter); Diethanolamine (500 mmol/liter); Magnesium chloride (1 mmol/liter); Zinc chloride (0.1 mmol/liter). The reaction pH was 10.2 at a reaction temperature of 37° C. and volume fraction (sample/total) of 0.033 (1:30).
(§4) The diluted enzymes and inhibitors at appropriate concentrations (as shown in the Figures) were hand pipetted into numbered cuvettes in the multicuvette assembly of the VP Bichromatic Analyzer. Once the assay was started, the analyzer dispensed an appropriate amount of the buffered solution of p-nitrophenylphosphate containing magnesium and zinc chlorides into each cuvette. The multicuvette assembly rotated and allowed measurement of absorbance changes at every two minutes intervals. A 415 nm-450 nm filter was used to assay AP activity. All enzyme activity measurements were done at least in duplicate and the average value was used in the data analyses.
(§5) The I50 value for APl-3 is similarly calculated from its dose response curve.

Another test addresses T2, human intestinal AP (Homo sapiens, UniProt P09923).
T2 construct: purchased Aalto Scientific, Ltd., Vista, Calif
T2 sequence (P09923 20-503 limits assumed): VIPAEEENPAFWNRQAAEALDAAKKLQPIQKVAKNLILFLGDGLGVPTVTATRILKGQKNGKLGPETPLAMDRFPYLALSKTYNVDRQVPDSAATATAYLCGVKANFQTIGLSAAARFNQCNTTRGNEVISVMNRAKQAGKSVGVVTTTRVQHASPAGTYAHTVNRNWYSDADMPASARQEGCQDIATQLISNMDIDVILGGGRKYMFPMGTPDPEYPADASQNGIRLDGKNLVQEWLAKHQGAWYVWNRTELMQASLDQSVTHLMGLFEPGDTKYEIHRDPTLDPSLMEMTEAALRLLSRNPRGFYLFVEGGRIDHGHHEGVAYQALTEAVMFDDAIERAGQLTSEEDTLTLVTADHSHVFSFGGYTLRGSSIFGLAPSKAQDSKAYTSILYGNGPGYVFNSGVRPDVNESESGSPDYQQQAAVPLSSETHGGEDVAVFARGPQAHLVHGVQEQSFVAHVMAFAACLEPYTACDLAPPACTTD
Nature of the test: Inhibition of human intestinal AP isoenzyme (p-nitrophenylphosphate hydrolysis). It counts as biochemical. The protocol: as §1, §2, §3, §4, §5

Another test has as its system E. coli AP. Briefly: Inhibition of (altered) E. coli AP (p-nitrophenylphosphate hydrolysis). In kind it is biochemical. To be noted: FIG. 7, at the concentration inhibiting human isoenzymes, high concentrations. The procedure:
E. coli AP (APKJ3 and APKJ4) were obtained according to the methods disclosed in U.S. patent Ser. No. 08/031,165 and its CIP. APKJ4 is an E. coli AP in which the lysine at its position 177 has been replaced with cysteine.
as §2
E. coli AP: P-Nitrophenylphosphate (1 mmol/liter); Tris-chloride (100 mmol/liter); Magnesium chloride (1 mmol/liter); and Zinc chloride (0.1 mmol/liter). The reaction pH was 8.0 at a reaction temperature of 37° C. and volume fraction (sample/total) of 0.033 (1:30).
as §4

Another test concerns tissue-nonspecific AP. To be noted: background art; cited from earlier work.
The subject of test [1] is placental and intestinal isoenzymes. To be noted: background art; cited from earlier work.
The next test has as its target calf intestinal AP (Bos taurus, UniProt P19111). To be noted: used in an immunoassay; cited from earlier work.
Setting [2] is: FIG. 7, at the concentration compared with E. coli AP.

Each structure is given as a SMILES string.

T1 sequence (P05187 23-506 limits assumed): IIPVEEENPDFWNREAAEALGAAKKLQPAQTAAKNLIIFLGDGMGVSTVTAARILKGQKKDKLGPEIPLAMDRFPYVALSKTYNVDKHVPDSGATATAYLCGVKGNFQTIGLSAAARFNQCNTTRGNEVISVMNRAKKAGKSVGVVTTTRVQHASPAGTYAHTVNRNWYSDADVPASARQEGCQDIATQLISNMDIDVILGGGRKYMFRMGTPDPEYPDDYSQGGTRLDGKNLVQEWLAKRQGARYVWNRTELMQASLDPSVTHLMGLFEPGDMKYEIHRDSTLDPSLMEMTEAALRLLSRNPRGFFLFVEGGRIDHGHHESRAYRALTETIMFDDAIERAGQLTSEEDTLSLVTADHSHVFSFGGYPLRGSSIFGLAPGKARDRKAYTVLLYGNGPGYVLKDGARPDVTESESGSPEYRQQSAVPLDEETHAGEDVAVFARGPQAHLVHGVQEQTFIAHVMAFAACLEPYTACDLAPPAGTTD
Sequence of calf intestinal AP (P19111 20-506): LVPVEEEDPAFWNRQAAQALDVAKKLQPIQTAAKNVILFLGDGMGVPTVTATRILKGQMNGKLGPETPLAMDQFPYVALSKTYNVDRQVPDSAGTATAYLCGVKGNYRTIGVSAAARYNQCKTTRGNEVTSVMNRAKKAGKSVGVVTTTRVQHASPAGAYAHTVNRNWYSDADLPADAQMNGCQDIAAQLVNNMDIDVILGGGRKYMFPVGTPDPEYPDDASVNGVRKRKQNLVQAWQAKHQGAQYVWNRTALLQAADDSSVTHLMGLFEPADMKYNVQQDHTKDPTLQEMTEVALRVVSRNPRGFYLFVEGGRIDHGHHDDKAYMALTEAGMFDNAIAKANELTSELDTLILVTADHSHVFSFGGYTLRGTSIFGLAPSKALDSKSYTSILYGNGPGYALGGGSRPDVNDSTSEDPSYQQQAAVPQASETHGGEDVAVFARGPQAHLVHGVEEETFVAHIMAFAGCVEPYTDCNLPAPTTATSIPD

Take `c1ccc([C@@H]2CN3CCSC3=N2)cc1` [D- counterpart]: in the test on AP, the “AP inhibition by D- counterpart of levamisole” value was “not an AP inhibitor”.

Regarding `c1ccc([C@H]2CN3CCSC3=N2)cc1` [Levamisole, (L-)2,3,5,6-tetrahydro-6-phenylimidazo[1,2-b]thiazole, reference compound], the “effectiveness against placental isoenzymes” value on human placental AP (FIG. 5) is “a lot less effective compared to compounds APl-1 and APl-2”. Further, on human placental AP (FIG. 5), the “order of effectiveness, placental isoenzymes” value is “APl-2>APl-1>levamisole>L-phenylalanine”. Besides, the “inhibition of the placental isoenzymes” value against human placental AP (setting [2]) is reported as 80%. The IC50 at human placental AP (pH 10.2, 37° C., p-nitrophenylphosphate 2.2 mmol/liter, from dose response curves, read-out: [I]50 Placental AP: concentration of inhibitor that gives 50% inhibition of enzyme activity) was 2.2 mM; on human intestinal AP (pH 10.2, 37° C., p-nitrophenylphosphate 2.2 mmol/liter, from dose response curves, read-out: [I]50 Intestinal AP: concentration of inhibitor that gives 50% inhibition of enzyme activity), 12 mM. The “order of effectiveness, intestinal isoenzymes” value on human intestinal AP (FIG. 6) is reported as “APl-2>APl-1>L-phenylalanine>levamisole”. Besides, the “inhibition of the intestinal isoenzymes” value against human intestinal AP (setting [2]) is reported as 48%. For the same compound, the “inhibition of the E. coli AP” value with E. coli AP was 65%. Besides, in the test on tissue-nonspecific AP, the “sensitivity of tissue-nonspecific AP to inhibitor” value was “strongly inhibited”. Also, the “inhibition of placental and intestinal isoenzymes” value in test [1] is listed as “only at much higher concentrations”. Also, the “effect on specific immuno-signal generated by calf intestinal AP” value on calf intestinal AP was “does not interfere with the specific immuno-signal generated by calf intestinal AP”.
